Reference: patent US20100190788A1, “Amide derivatives as kinase inhitors” (priority 2005, published 2010)
Where a name gives a salt, the structure may show the parent alone.

Target: T1, human ROCKα/ROCKII mix (Homo sapiens, UniProt O75116)
T1 construct: purchased Upstate Biotechnology 14-451
Test: ROCK inhibition, fluorescence polarization (FP) assay with ROCK IMAP Kit
Assay type: biochemical
Conditions: Table 4, compounds 132 to 156

T1 sequence (O75116 whole entry): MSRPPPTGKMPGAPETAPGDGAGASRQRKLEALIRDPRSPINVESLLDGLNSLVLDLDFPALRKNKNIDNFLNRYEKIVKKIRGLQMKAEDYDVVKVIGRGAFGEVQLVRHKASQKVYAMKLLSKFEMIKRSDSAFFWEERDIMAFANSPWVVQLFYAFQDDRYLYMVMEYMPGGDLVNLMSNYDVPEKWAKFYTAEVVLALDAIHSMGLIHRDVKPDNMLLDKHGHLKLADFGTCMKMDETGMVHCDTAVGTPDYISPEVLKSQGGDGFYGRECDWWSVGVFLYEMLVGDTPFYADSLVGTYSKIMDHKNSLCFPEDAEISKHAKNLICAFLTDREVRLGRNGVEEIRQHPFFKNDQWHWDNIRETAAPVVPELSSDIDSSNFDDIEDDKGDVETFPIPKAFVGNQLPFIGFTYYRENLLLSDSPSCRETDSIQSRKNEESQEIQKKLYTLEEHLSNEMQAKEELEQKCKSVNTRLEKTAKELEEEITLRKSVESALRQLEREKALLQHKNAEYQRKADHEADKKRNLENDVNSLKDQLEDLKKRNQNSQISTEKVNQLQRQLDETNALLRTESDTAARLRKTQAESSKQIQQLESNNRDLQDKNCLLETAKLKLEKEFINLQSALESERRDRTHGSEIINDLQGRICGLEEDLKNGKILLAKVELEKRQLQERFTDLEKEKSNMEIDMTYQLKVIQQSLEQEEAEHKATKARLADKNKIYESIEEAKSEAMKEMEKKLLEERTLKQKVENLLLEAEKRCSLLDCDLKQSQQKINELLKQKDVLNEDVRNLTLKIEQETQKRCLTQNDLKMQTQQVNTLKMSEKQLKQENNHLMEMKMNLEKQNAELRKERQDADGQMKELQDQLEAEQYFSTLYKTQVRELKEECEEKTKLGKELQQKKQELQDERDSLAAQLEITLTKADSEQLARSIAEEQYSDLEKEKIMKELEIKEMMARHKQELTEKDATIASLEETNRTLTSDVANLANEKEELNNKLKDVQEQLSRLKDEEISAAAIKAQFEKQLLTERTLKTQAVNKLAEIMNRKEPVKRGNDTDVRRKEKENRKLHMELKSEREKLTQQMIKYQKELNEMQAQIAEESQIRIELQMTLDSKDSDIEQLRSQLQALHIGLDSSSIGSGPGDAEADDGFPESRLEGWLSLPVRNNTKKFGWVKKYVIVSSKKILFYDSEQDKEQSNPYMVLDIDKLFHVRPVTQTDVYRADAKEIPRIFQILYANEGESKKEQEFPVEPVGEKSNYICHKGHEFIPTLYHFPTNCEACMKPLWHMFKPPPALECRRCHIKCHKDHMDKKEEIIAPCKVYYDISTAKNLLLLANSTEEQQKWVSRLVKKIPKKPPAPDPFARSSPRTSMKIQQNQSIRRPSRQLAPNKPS

IC50 [µM]	Compound
0.5 to 5	CN(CC(N)c1ccc(C(=O)Nc2ccncc2)cc1)S(=O)(=O)c1ccc(Cl)cc1 (stereo not shown) [Compound 145, 4-{1-Amino-2-[(4-chloro-benzenesulfonyl)-methyl-amino]-ethyl}-N-pyridin-4-yl-benzamide dihydrochloric acid salt]
< 0.5	COc1ccc(S(=O)(=O)N(C)CC(N)c2ccc(C(=O)Nc3ccncc3)cc2)cc1 (stereo not shown) [Compound 146, 4-{1-Amino-2-[(4-methoxy-benzenesulfonyl)-methyl-amino]-ethyl}-N-pyridin-4-yl-benzamide dihydrochloric acid salt]
< 0.5	N[C@H](CC(=O)N1CCC[C@@H]1c1cccc(F)c1)c1ccc(C(=O)Nc2ccncc2)cc1 [Compound 149, 4-{(R)-1-Amino-3-[(R)-2-(3-fluoro-phenyl)-pyrrolidin-1-yl]-3-oxo-propyl}-N-pyridin-4-yl-benzamide dihydrochloric acid salt]
< 0.5	N[C@H](CC(=O)N1CCC[C@H]1c1cccc(F)c1)c1ccc(C(=O)Nc2ccncc2)cc1 [Compound 150, 4-{(R)-1-Amino-3-[(S)-2-(3-fluoro-phenyl)-pyrrolidin-1-yl]-3-oxo-propyl}-N-pyridin-4-yl-benzamide dihydrochloric acid salt]
< 0.5	N[C@@H](CC(=O)N1CCC[C@@H]1c1cccc(F)c1)c1ccc(C(=O)Nc2ccncc2)cc1 [Compound 151, 4-{(S)-1-Amino-3-[(R)-2-(3-fluoro-phenyl)-pyrrolidin-1-yl]-3-oxo-propyl}-N-pyridin-4-yl-benzamide dihydrochloric acid salt]
< 0.5	N[C@@H](CC(=O)N1CCC[C@H]1c1cccc(F)c1)c1ccc(C(=O)Nc2ccncc2)cc1 [Compound 152, 4-{(S)-1-Amino-3-[(S)-2-(3-fluoro-phenyl)-pyrrolidin-1-yl]-3-oxo-propyl}-N-pyridin-4-yl-benzamide dihydrochloric acid salt]
5 to 50	COc1ccc(S(=O)(=O)N(C)C[C@H](N)c2ccc(C(=O)Nc3ccncc3)cc2)cc1 [Compound 153, 4-{(R)1-Amino-2-[(4-methoxy-benzenesulfonyl)-methyl-amino]-ethyl}-N-pyridin-4-yl-benzamide dihydrochloric acid salt]
< 0.5	COc1ccc(S(=O)(=O)N(C)C[C@@H](N)c2ccc(C(=O)Nc3ccncc3)cc2)cc1 [Compound 154, 4-{(S)1-Amino-2-[(4-methoxy-benzenesulfonyl)-methyl-amino]-ethyl}-N-pyridin-4-yl-benzamide dihydrochloric acid salt]
< 0.5	N[C@H](C(=O)NCc1ccccc1)c1ccc(C(=O)Nc2ccncc2)cc1 [Compound 155, 4-((S)-Amino-benzylcarbamoyl-methyl)-N-pyridin-4-yl-benzamide dihydrochloric acid salt]
0.5 to 5	N[C@@H](C(=O)NCc1ccccc1)c1ccc(C(=O)Nc2ccncc2)cc1 [Compound 156, 4-((R)-Amino-benzylcarbamoyl-methyl)-N-pyridin-4-yl-benzamide dihydrochloric acid salt]
